Results reported in article PMC5695812, “Novel chloroacetamido compound CWR-J02 is an anti-inflammatory glutaredoxin-1 inhibitor” (PLoS ONE, 2017).

Tests used:
[1] = target: Cys22 (UniProt position 23, FIKPTCPYCRR); details: cited from earlier work
[2] = target: T1, glutaredoxin-1 (Grx1) (Homo sapiens, UniProt P35754); experiment: isolated enzyme spectrophotometric assay ([…] min pre-incubation, […] GSH); Kitz-Wilson kinetics; tandem MS of the Cys-22 adduct; assay type: biochemical
T1 construct: gene GLRX
T1 sequence (P35754 2-106): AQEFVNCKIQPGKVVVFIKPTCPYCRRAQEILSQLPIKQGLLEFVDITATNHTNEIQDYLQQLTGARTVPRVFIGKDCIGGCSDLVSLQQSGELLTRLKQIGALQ

[3] = target: T2, glutaredoxin-1 (Grx1) (Mus musculus, UniProt Q9QUH0); experiment: Grx1 activity in lysates of treated BV2 murine microglia; click-biotin/streptavidin pull-down with MS and western blot; assay type: cell-based
T2 construct: gene Glrx
T2 sequence (Q9QUH0 2-107): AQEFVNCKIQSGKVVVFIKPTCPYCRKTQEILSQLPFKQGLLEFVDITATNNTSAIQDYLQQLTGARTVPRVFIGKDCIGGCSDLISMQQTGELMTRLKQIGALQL

| IC50 [2] [µM] | IC50 [3] [µM] | Molecule | pKa [1] |
| --- | --- | --- | --- |
|  |  | Glutaredoxin-1 (Grx1, thioltransferase) (Homo sapiens (inferred; species of the isolated enzyme not stated explicitly)) | 3.5 |
| 32 | 37 | C#CCOc1cc(C(=O)NCc2ccc(NC(=O)CCl)cc2)cc(C(=O)OC)c1 [J02, methyl 3-((4-(2-chloroacetamido)benzyl)carbamoyl)-5-(prop-2-yn-1-yloxy) benzoate] |  |
